Measured values published in patent US5520901A, “Method for the recovery of iodine from an environment” (General Electric Company, priority 1993, dated 1996).

Tests used:
[1] = Final pH of treated solution; type: physicochemical; conditions: 0.2 grams of reagent; water 4.36
Description: The basicity of certain reagents was examined in terms of the reagents' relative ability to recover iodine. […] The amount of each reagent was 0.2 grams.

[2] = cited from earlier work

[Ca+2].[OH-].[OH-] [Ca(OH)2, calcium hydroxide]
Final pH of Treated Solution [1]: 12.23

O=C(O)O [CaCO3, Calcium carbonate]
Final pH of Treated Solution [1]: 7.12

[O]=[Ca] [CaO, calcium oxide]
Water Solubility [2]: 0.131 g/100 cc | Final pH of Treated Solution [1]: 12.34

[Mg+2].[OH-].[OH-] [Mg(OH)2, magnesium hydroxide]
Final pH of Treated Solution [1]: 8.86

O=C(O)O [MgCO3, magnesium carbonate]
Final pH of Treated Solution [1]: 7.96

[O]=[Mg] [MgO, magnesium oxide]
Water Solubility [2]: 0.001 g/100 cc | Final pH of Treated Solution [1]: 7.33
